We go through one compound from patent US11850238B2, “Use of a thienopyridone derivative in the treatment of adrenoleukodystrophy or adrenomyeloneuropathy” (POXEL, priority 2020, dated 2023).

In experiment [1] the test system is AMN human patient-derived primary lymphocytes. The experiment in a line: Hexacosanoic acid (VLCFA) level in AMN patient-derived lymphocytes, LC-MS. The experiment is classed as cell-based. As to the method:
(§1) In order to show the efficacy of PXL770 to lower very long chain fatty acids (VLCFA) in vitro, the study focuses on the level assessment of the hexacosanoic acid, which is the most prevalent VLCFA, in healthy control cells and in AMN human patient-derived primary lymphocytes. The cell lines were obtained from Coriell Cell Repositories. Lymphocytes were cultured in RPMI-1640 with 10% fetal bovine serum (FBS). The cultures were split in 1:5 ratio. Lymphocytes from healthy patients were used as control. All treatments were in complete media containing fetal bovine serum (FBS, 15%). All cultured cells were maintained at 37° C. in 5% CO2.
(§2) VLCFA content was then measured as follows. Samples are adjusted to a final volume of 0.5-1 ml with LC-MS grade water and spiked with 10 ng of Lignoceric acid-d4 as an internal standard. The sample is acidified to pH 3-4 with dilute hydrochloric acid and extracted with isooctane-ethyl acetate (9:1) three times with equal volume. The extract is dried under nitrogen and the residue is reconstituted in methanol-water-ammonium acetate (75:25:10 mM).
Total fatty acids: After preparing the samples with internal standard as described above for free fatty acids, aqueous sodium hydroxide is added to a final concentration of 1 M. The mixture is incubated at 37° C. in dark under nitrogen for 3 h. […]
LC-MS analysis of fatty acids: The reconstituted fatty acid extracts are subjected to HPLC on Targa C8 column (2×10 mm) using methanol-aqueous ammonium acetate (10 mM) solvent mixture. […] The column eluent is directly introduced to mass analyzer (QTRAP5500) and monitored for fatty acids using published pseudo MRM method. […] Each fatty acid is quantitated against the added internal standard.
First, the evolution of hexacosanoic acid in lymphocytes is monitored in healthy control cells and in AMN human patient-derived primary lymphocytes; and in a second time a treatment of PXL770 was assigned to AMN human-derived primary lymphocytes in culture at different concentrations (5 μM, 10 μM, 25 μM, 50 μM) for one week and the level of hexacosanoic acid was measured. […]

A further experiment relates to ABCD2. In words: Western blot of ABCD2 expression in ALD patient fibroblasts. It is filed as cell-based, human. The settings on record: especially at low concentration (5 μM), FIG. 6. On the procedure: The experiments described in Examples 4 and 6 were performed with metformin by the same lab and described by Singh et al. in Journal of Neurochemistry, 2016; 138, 86-100.

Experiment [2] deals with AMN human patient-derived primary fibroblasts. In words: Hexacosanoic acid (VLCFA) level in AMN patient-derived fibroblasts, LC-MS. It is filed as cell-based. As to the method:
as §1, with “compare” for “show”, “PXL770 and metformin” for “PXL770”, “fibroblasts.” for “lymphocytes.”, “Fibroblasts” for “Lymphocytes”, “DMEM” for “RPMI-1640”, “15% FBS.” for “10% fetal bovine serum (FBS).”
as §2
Total fatty acids: After preparing the samples with internal standard as described above for free fatty acids, aqueous sodium hydroxide is added to a final concentration of 1 M. The mixture is incubated at 37° C. in dark under nitrogen for 3 h. The samples are then acidified, extracted, and reconstituted as described above.
LC-MS analysis of fatty acids: The reconstituted fatty acid extracts are subjected to HPLC on Targa C8 column (2×10 mm) using methanol-aqueous ammonium acetate (10 mM) solvent mixture. The column is eluted with a gradient of methanol (75 to 90%) over 8 min at a flow rate of 0.25 ml/min. The column eluent is directly introduced to mass analyzer (QTRAP5500) and monitored for fatty acids using published pseudo MRM method. Under these conditions, the VLCFA elute between 5 and 8 min. Each fatty acid is quantitated against the added internal standard.
The study planned different groups of patients. First, the evolution of hexacosanoic acid in fibroblasts is monitored in healthy control cells and in AMN human patient-derived primary fibroblasts; and in a second time a treatment of PXL770 was assigned to AMN human-derived primary fibroblasts in culture at different doses (PXL770: 0.1, 0.5, 1, 2, 3.5 and 5 μM; metformin: 100, 200, 300 and 400 μM) for one week and the level of hexacosanoic acid was measured.
The experiment described in Example 3 was reproduced with various thienopyridone compounds, namely: • PXL770: potassium 2-chloro-3-(5-hydroxytetralin-6-yl)-6-oxo-5-phenyl-7H-thieno[2,3-b]pyridin-4-olate • PXL700: 2-chloro-4-hydroxy-3-indan-5-yl-5-(3-pyridyl)-7H-thieno[2,3-b]pyridin-6-one • PXL702: 2-chloro-4-hydroxy-3-(4-hydroxyindan-5-yl)-5-phenyl-7H-thieno[2,3-b]pyridin-6-one • PXL695: 2-chloro-5-(3-fluorophenyl)-4-hydroxy-3-(4-hydroxyindan-5-yl)-7H-thieno[2,3-b]pyridin-6-one, • each tested at concentrations from 0.1 to 5 μM.
A one-way ANOVA with Dunnett's multiple comparison test was performed to assess the effect of PXL770 on brain's VLCFAs (**** p<0.0001, *** p<0.001). A Kruskal-Wallis test with Dunn's multiple comparison test was performed to assess the effect of PXL770 on plasma's VLCFAs (**** p<0.0001, […]).

The subject of another experiment is ABCD1-KO mice. In words: In vivo X-ALD mouse, 90 days: VLCFA (C26:0) in spinal cord. The conditions noted are these: male ABCD1-KO mice, 75 mg/kg oral gavage twice a day, FIG. 13. On the procedure:
Male ABCD1-KO mice (n=8) were treated with oral gavage of PXL770 (75 mg/kg) twice a day, every day for 90 days. Untreated ABCD1-KO mice (n=8) and wild-type (WT) mice (n=8) served as controls. Post-treatment mice were sacrificed and spinal cord was collected for VLCFA analysis. The analysis was performed according to the standardized protocols of the Lipidomics Core Facility and data are expressed as VLCFA μg/ml levels. Hexacosanoic acid (C26:0) was selected as representative for VLCFAs.

Consider `O=c1[nH]c2sc(Cl)c(-c3ccc4c(c3O)CCCC4)c2c([O-])c1-c1ccccc1.[K+]` [PXL770, monohydrate potassium salt of 2-chloro-4-hydroxy-3-(5-hydroxytetralin-6-yl)-5-phenyl-7H-thieno[2,3-b]pyridin-6-one], for which the “level of hexacosanoic acid” value is reported as “strongly decreases” in experiment [1] (AMN lymphocytes, all doses tested (5, 10, 25, 50 μM), one week, FIG. 1) and “decreases” in experiment [2] (AMN fibroblasts, increasing doses 0.1-5 μM, one week, FIG. 10). Further, the “level of hexacosanoic acid compared to healthy controls” value in experiment [1] (AMN lymphocytes, doses of 5 and 50 μM, one week, FIG. 1) is given as “same level as that present in lymphocytes of healthy controls”. The “VLCFA content, normalization” value in experiment [1] (AMN patient cells, 5 μM) was “normalization effect”. The “expression of ABCD2 (Western blot)” value in the experiment on ABCD2 was “overexpression”. Also, the “potency and efficacy compared to metformin” value in experiment [2] (AMN fibroblasts, PXL770 0.1-5 μM vs metformin 100-400 μM, one week, FIG. 10) was “much higher potency and efficacy”. For the same compound, the VLCFA levels result in experiment [2] (AMN patient-derived fibroblasts, concentrations from 0.1 to 5 μM, FIG. 14) is recorded as “comparable decrease”. Further, the “VLCFA accumulation in the spinal cord” value in the experiment with ABCD1-KO mice is “significantly reduces”.
